Results as given in US10422007B2, “Markers associated with Wnt inhibitors” (Novartis AG, priority 2013, dated 2019).

Key:
Wnt signaling = test: Wnt co-culture reporter gene assay (TM3 Wnt-Luc cells with L-cell Wnt3A cells); type: cell-based, mouse
Description: Reporter gene assay: Mouse Leydig cell TM3 cells (obtained from American Type Culture Collection, ATCC, Manassas, Va.) are cultured in 1:1 mixture of Ham's F12 medium and Dulbecco's modified Eagle's medium (Gibco/Invitrogen, Carlsbad, Calif.) supplemented with 2.5% FBS (Gibco/Invitrogen, Carlsbad, Calif.) and 5% horse serum (Gibco/Invitrogen, Carlsbad, Calif.), 50 unit/mL penicillin and 50 μg/mL of streptomycin (Gibco/Invitrogen, Carlsbad, Calif.) at 37° C. with 5% CO2 in air atmosphere. TM3 cells in a 10 cm dish are co-transfected with 8 μg of STF-reporter plasmid containing a luciferase gene driven by Wnt-responsive elements and 2 μg of pcDNA3.1-Neo (Gibco/Invitrogen, Carlsbad, Calif.) with 30 μL of FuGENE6 (Roche Diagnostics, Indianapolis, Ind.) following the manufacturer's protocol. Stable cell lines (TM3 Wnt-Luc) were selected with 400 μg/mL of G418 (Gibco/Invitrogen, Carlsbad, Calif.). […]

Wnt3A secretion = test: HA-Wnt3A secretion in transfected 293A cells; type: cell-based; settings: 293A cells transfected with HA-Wnt3A, various doses; lysate HA-Wnt3A spared
From the text: (§1) The secreted Wnts subsequently function on Wnt receiving cells that leads to phosphorylation of the Wnt […] LRP6. […] PORCN was reported to affect pan-Wnt post-translational palmitoylation^17-18.

LRP6 phosphorylation = test: Wnt dependent phosphorylation of LRP6 in autocrine L-Wnt3A cells; type: cell-based, mouse
From the text: as §1

[1] = tested on: Wnt1, 2, 3, 3A, 6, 7A, and 9A; test: Wnt dependent STF reporter assays with a set of canonical Wnts; type: cell-based
From the text: as §1

cells = test: Cytotoxicity in cells; type: cell-based; settings: up to 20 μM
From the text: as §1

HNSCC cell lines = test: Cancer cell line profiling with AXIN2 mRNA expression as readout (TaqMan); type: cell-based, human
Description: (§2) To identify human cancer cell lines that respond to porcupine inhibition, we profiled over 300 cell lines using the mRNA expression level of AXIN2 as readout. All cell lines were cultured in a humidified incubator at 37° C. with 5% CO2. HN30 cells (Wayne State University) and UMSCC cells (University of Michigan) are derived from human head neck squamous cell carcinoma (HNSCC) patient tumor samples. Total RNA or DNA was isolated using the Qiagen RNeasy and DNeasy blood and tissue kit, according to the manufacturer's instruction, respectively. Briefly, cells were disrupted by adding Buffer RLT and homogenized using QlAshredder spin columns. After one volume of 70% ethanol was added to the homogenized lysate and thoroughly mixed, the samples were transferred to RNeasy spin column. The flow-through was discarded after centrifuge. […]
(§3) For this a two-Step TaqMan RT-PCR analysis was performed on a PTC-200 peltier thermal cycler (MJ Research) and an ABI PRISM 7900HT Sequence Detection system (Applied Biosystems). […] The PCR cycle is as following: 95° C. for 10 min and 40 cycles of tandem incubation at 95° C. for 15 sec and 60° C. for 1 min. mRNA expression levels for the target genes were normalized to GAPDH mRNA levels and data were analyzed using SDS 2.0 software (Applied Biosystems) to calculate relative RNA quantities. […]

HN30 cells [2] = test: Wnt-dependent AXIN2 message production in HN30 (TaqMan); type: cell-based; settings: Homo sapiens; HN30, 48 hours
Description: as §2, §3

HN30 cells [3] = test: HN30 colony formation assay; type: cell-based, human; settings: in vitro, crystal violet one week later
Description: In order to correlate the pathway inhibition with cellular function, the human HNSCC cell line HN30 was used for further in vitro and in vivo characterization. For colony formation assay, 2×10^3 cells per well were plated into 6-well cell culture plates with or without compound treatment. Cells were stained with crystal violet one week later.

HN30 tumors [4] = test: Mouse subcutaneous xenograft model of HNSCC HN30, anti-tumor activity; type: in vivo
Description: (§4) Nude mice bearing HN30 tumors were randomized according to tumor volume. […] Body weight was monitored daily and tumor sizes were assessed three times a week once tumors were palpable. Tumor sizes were determined by using caliper measurements. Tumor volumes were calculated with a formula (Length×Width×Height)/2. […] Blood sample (50 μL) was collected by serial retroorbital sampling at 1, 3, 7, 16 and 24 hours post-dose. The blood samples were centrifuged and plasma separated and frozen until analysis by LC/MS/MS.
Changes in tumor weight for each treated (T) and control (C) groups were measured and used to calculate growth delay as expressed by the T/C ratio. […] A similar result was obtained when dosed twice a day in this model with −44% T/C at a dose of 0.5 mg/kg twice a day.

HN30 tumors [5] = test: Pharmacodynamic markers in HN30 mouse xenograft tumors; type: in vivo
Description: AXIN2 mRNA and pLRP6 levels (determined as in Example 3) were utilized as pharmacodynamic markers to link the observed anti-tumor activity in the HN30 mouse xenograft model. […] A time delay was observed between the peak drug concentration (at 1 hour) and the maximum AXIN2 mRNA inhibition (at 10 hours). […] This pharmacokinetic (PK), PD, and efficacy relationship explains that the sustained pathway inhibition is not required for inducing tumor regression in this HN30 xenograft model, which may provide a key differentiation factor between tumors and normal tissues to achieve a therapeutic window.
For this a two-Step TaqMan RT-PCR analysis was performed on a PTC-200 peltier thermal cycler (MJ Research) and an ABI PRISM 7900HT Sequence Detection system (Applied Biosystems). Firstly, cDNA was synthesized using a High-Capacity cDNA Archive kit (Applied Biosystems) according to the manufacturer's instructions. Briefly, the RT reaction was prepared by mixing non-enzymatic, enzymatic components of the High-Capacity cDNA Archive kit and isolated RNA samples, followed with tandem incubation at 25° C. for 10 min and 37° C. for 120 min using a thermal cycler. Secondly, TaqMan analyses were performed using TaqMan Universal Master mix (Applied Biosystems) and AXIN2 and GAPDH probes (Applied Biosystems) according to the manufacturer's instructions. Briefly, the PCR reaction was prepared by mixing Universal Master mix, TaqMan probes and synthesized cDNA samples. The PCR cycle is as following: 95° C. for 10 min and 40 cycles of tandem incubation at 95° C. for 15 sec and 60° C. for 1 min. mRNA expression levels for the target genes were normalized to GAPDH mRNA levels and data were analyzed using SDS 2.0 software (Applied Biosystems) to calculate relative RNA quantities. Curve fitting was performed using Prism.
For GeneCard analysis, 96-well TaqMan array gene card was used according to the manufacturer's instruction. The gene card assays were run on ABI 7900HT Real-Time PCR System (Applied Biosystems) and analyzed with the ΔΔCt method.

[6] = Plasma concentrations in tumor bearing nude mice; type: in vivo, mouse; settings: single dose 3 mg/kg
Description: as §4

SNU1076 xenograft = SNU1076 xenograft model in mice; type: in vivo, mouse; settings: 5 mg/kg
From the text: DTX3L (Deltex 3-like, also called BBAP, B-lymphoma- and BAL-associated protein) heterozygous nonsense mutation was identified in the HNSCC cell line SNU1076. DTX3L is an E3 ubiquitin ligase. Its cellular function in the mammalian Notch pathway is not clear, but its Drosophila homologue Deltex is a positive regulator of Notch signaling in Drosophila. […] Loss of DTX3L may provide an alternative mechanism to inactivate the Notch signaling pathway with subsequent activation of Wnt signaling.

Cc1cc(-c2ncc(CC(=O)Nc3ccc(-c4cnccn4)cn3)cc2C)ccn1 [COMPOUND A, 2-[5-methyl-6-(2-methylpyridin-4-yl)pyridin-3-yl]-N-[5-(pyrazin-2-yl)pyridin-2-yl]acetamide]
IC50 (Wnt signaling; Mus musculus, luciferase reporter, 24 hours, read-out: IC50 of Wnt signaling inhibition in Wnt co-culture assay): 0.4 nM | inhibitory effect after addition of exogenous Wnt3A conditioned medium (Wnt signaling; Wnt co-culture assay): rescued | abundance of HA-Wnt3A in the supernatant (Wnt3A secretion): potently attenuated | Wnt dependent phosphorylation of LRP6 (LRP6 phosphorylation): strongly blocked | inhibitory activities against canonical Wnts in STF reporter assays [1]: comparable inhibitory activities against all tested Wnts | cytotoxicity in cells (cells): no major cytotoxicity | cell lines harbouring HRAS mutations that responded (HNSCC cell lines; head and neck cancer cell lines): 4 of 5 | HNSCC cell lines showing pathway inhibition (HNSCC cell lines; responsive = greater than 50% AXIN2 mRNA reduction after 10-100 nM for 48 hours): 31 out of 96 | IC50 (HN30 cells [2]): 0.3 nM | HN30 colony formation (HN30 cells [3]): strongly attenuated | T/C (HN30 tumors [4]; 0.1 mg/kg once a day, oral gavage, 14 days): 69% | T/C (HN30 tumors [4]; 0.3 mg/kg once a day, oral gavage, 14 days): 26% | T/C (HN30 tumors [4]; 0.5 mg/kg twice a day): −44% | T/C (HN30 tumors [4]; 1.0 mg/kg once a day, oral gavage, 14 days): −31% | T/C (HN30 tumors [4]; 3.0 mg/kg once a day, oral gavage, 14 days): −50% | animal body weight loss (HN30 tumors [4]; 0.1-3.0 mg/kg once a day, 14 days): no significant animal body weight loss | time of maximum effect on pLRP6 (HN30 tumors [5]; HN30 tumors): 7-10 hours post dose | downregulation for LEF1 (HN30 tumors [5]; HN30 xenograft): 84% | downregulation for NKD1 (HN30 tumors [5]; HN30 xenograft): 67% | time of maximum AXIN2 mRNA inhibition (HN30 tumors [5]; single dose 3 mg/kg): 10 h | reduction of AXIN2 mRNA expression in tumors (HN30 tumors [5]; single dose 3 mg/kg, between 5 and 10 hours post dose): 60-95% | pLRP6 levels in the HN30 tumors (HN30 tumors [5]; time dependent, largely back to normal by 24 hours): substantially reduced | time of peak drug concentration [6]: 1 h | T/C (SNU1076 xenograft; 14 days of treatment): 25% | reduction of AXIN2 (SNU1076 xenograft; SNU1076 xenograft): 70%
